The results in this text go back to PMC11597446, “Using the Cocrystal Approach as a Promising Drug Delivery System to Enhance the Dissolution and Bioavailability of Formononetin Using an Imidazole Coformer” (Pharmaceuticals, 2024).

Series [1] is described as follows: Rat oral pharmacokinetics. Format: in vivo, Male Sprague-Dawley rats. As to conditions: rats, oral 20 mg FMN/kg. Here is the method:
The study was carried out in rats at a 20 mg FMN/kg dose. The plasma concentration profiles and the PK parameters are presented in Figure 9 and Table 4, respectively.
The experiments were carried out in accordance with the Guidelines for Animal Experimentation of Nonclinical Center, Chaon Co. Ltd. (Yongin, Republic of Korea) and approved by the Animal Ethics Committee of the institution (CE23665) on 13 February 2024. Male Sprague−Dawley rats (230−300 g, 8 weeks) were obtained from Dae Han Bio Link Co., Ltd. (Eumseong-gun, Republic of Korea). All rats had free access to food and water in a controlled environment for one week. […] After stirring for 5 min at 37 °C, an appropriate volume (about 200 μL) of suspension was delivered via oral gavage at a dosage of 20 mg/kg body weight. Approximately 300 μL blood samples were obtained from tail veins and placed into tubes pretreated with sodium citrate before and after 0.25, 0.5, 1, 2, 4, 8, and 24 h of dosing. Blood samples were immediately centrifuged at 5000 rpm for 10 min. All the plasma samples were stored at −80 °C until analysis. FMN from plasma samples were prepared for analysis by liquid–liquid extraction using methyl tert-butyl ether according to the following steps: 60 µL internal standard (IS) solution (10 ng/mL in 50% methanol) was added to 70 µL plasma sample and […] was placed in a 15 mL tube. The sample solution was vortexed for 10 min followed by centrifugation for 5 min at 4000 rpm. The upper organic layer was transferred to a clean test tube and evaporated on a heating block at 50 °C under nitrogen. The residue was dissolved in the 50% acetonitrile (900 µL, in 0.1% formic acid) and mixed on a vortex mixer for 30 s. Resulting sample solution was transferred to auto-sampler vials, and 5 µL aliquot was injected into the LC/MS/MS system for analysis of FMN by a validated method as described below.
The pharmacokinetic data were analyzed by Winnlene (China Pharmaceutical University, Nanjing, China), using the noncompartmental method to calculate the peak plasma concentration (Cmax), the time to reach Cmax (Tmax), and the area under the plasma concentration−time curve (AUC).
FMN quantitative analysis was carried out using Agilent 1200 system (Agilent, Waldbronn, Germany) with triple quadrupole mass spectrometry API5000 (ABSciex, Vaughan, ON, Canada) operated in negative electrospray ionization using MRM mode. A Luna C8(2) column (2.1 mm I.D., 100 mm length, 5 μm; Phenomenex, Torrance, CA, USA) was maintained at 40 °C. Gradient elution was carried out at a flow rate of 0.3 mL/min using mobile phase A (distilled water) and mobile phase B (acetonitrile). The gradient applied was as follows: from 0 to 2.5 min, 50% B; from 2.6 to 7.0 min, 95% B; and from 7.1 to 11.5 min, 50% B. Sample volumes of 5 μL were injected. The fragmentation transitions were m/z 267.1 → 252.0 for FMN and m/z 197.0 → 92.0 for […], respectively. Optimized instrument settings specific for FMN and IS were as follows: curtain gas, 20 psi; ion source gas 1, 50 psi; ion source gas 2, 50 psi; ion spray voltage, −4500 V; turbo heater temperature, 650 °C. The precursor ions of FMN and IS were formed using declustering potentials of −90 and −40 V, respectively, and their precursor ions were fragmented at collision energies of −28 and −42 eV by collision-activated dissociation with nitrogen at a pressure setting of 5 (arbitrary units). Both quadrupoles were maintained at unit resolution. The ratio of the standard to IS peak area was used for calibration by linear regression analysis.

Series [2] can be described thus: Physical stability test (PXRD after storage). Type of series: physicochemical. As for the experimental part: Powder samples in closed glass vials were stored at 4 and 40 °C. They were then analyzed by PXRD for crystallization at given time points. PXRD measurement conditions were the same as described above.
The nature of series [3]: Powder dissolution experiment in bio-relevant media (FaSSGF, FaSSIF). Conditions: 37 °C.
Protocol: Bio-relevant media, FaSSGF and FaSSIF, were used for powder dissolution tests to mimic in vivo environments.
Powder samples were sieved through a 300 µm sieve. FaSSGF and FaSSIF were prepared according to the literature, except pepsin was not included in FaSSGF [41]. Samples equivalent to 5 mg of FMN were added to 20 mL glass vials containing 10 mL of FaSSGF or FaSSIF. Sample vials were placed in a shaking incubator (SIF-6000R, Jeio Tech, Daejeon, Republic of Korea) at 37 °C. Aliquots (1 mL) were collected at designated time points and filtered through a 0.45 µm PVDF filter and diluted with the HPLC mobile phase for HPLC analysis. Additional test for cocrystal was carried out in the presence of PVP K30 (2.5 mg/mL) in FaSSGF or FaSSIF.
FMN quantitative analysis was carried out using a Shimadzu system (Japan) equipped with a C8 column (5 μm, 4.6 mm I.D., and 150 mm length, Waters, Milford, MA, USA) at room temperature. The mobile phase was composed of methanol/water (60:40, v/v). Samples were injected in a volume of 10 μL with a total flow rate set at 1.0 mL/min. Detection was carried out at a UV wavelength of 254 nm. The area of the standard was used for calibration by linear regression analysis.
Where [4] appears, read: plasma FMN, suspension in 1% PVP-K30, n = 4.

“Also recorded” adds a separate entry of the source. Read-outs that look alike come from different tables or passages of the source.

As usually defined, the AUC(0-inf) is the area under the concentration-time curve extrapolated to infinity. Low readings indicate low exposure, high ones high exposure. By AUC(0-t) is commonly meant the area under the concentration-time curve up to a stated or last time point. The low end stands for low exposure, the high end for high exposure. Broadly, the Cmax is the highest concentration seen after dosing. By half-life is commonly meant the time needed for the level to fall by half in the phase considered. What is called Tmax is the time from dosing to the highest level. For `COc1ccc(-c2coc3cc(O)ccc3c2=O)cc1` [FMN, Formononetin], in series [1] (male, Sprague-Dawley, rat, 20 mg/kg, plasma FMN, crystalline FMN suspension in 1% PVP-K30, n = 4), the AUC(0-inf) turned out to be 16.4 ± 1.51 ng·h/mL. Moreover, in series [1] (male, Sprague-Dawley, rat, 20 mg/kg, plasma FMN, crystalline FMN suspension in 1% PVP-K30, n = 4, mean ± SD), the AUC(0-t) amounted to 10.4 ± 3.19 ng·h/mL. Moreover, the Cmax in series [1] (male, Sprague-Dawley, rat, 20 mg/kg, plasma FMN, crystalline FMN suspension in 1% PVP-K30, n = 4, read-out: Cmax) worked out at 1.81 ± 0.73 ng/mL. The molecule further showed a half-life in series [1] (male, Sprague-Dawley, rat, 20 mg/kg, plasma FMN, suspension in 1% PVP-K30, n = 4) of 7.1 ± 3.35 h. The Tmax in series [1] (male, Sprague-Dawley, rat, 20 mg/kg, plasma FMN, suspension in 1% PVP-K30, n = 4, read-out: Tmax) is 5 ± 2 h.

Take “formononetin-imidazole [FMN-IMD cocrystal]”: in series [1] (setting [4]), the AUCinf was determined as 44.52 ± 19.11 ng·h/mL, the Cmax is on record as 8.93 ± 6.66 ng/mL, the T1/2 came to 5.60 ± 2.19 h and the Tmax came out at 0.44 ± 0.38 h. In series [1] (plasma FMN, suspension in 1% PVP-K30, n = 4, mean ± SD), this molecule yielded an AUCt of 37.38 ± 20.97 ng·h/mL. In series [1], the “increase in AUC compared to crystalline FMN” value worked out at 3.58 fold and the “increase in Cmax compared to crystalline FMN” value amounted to 4.93 fold. For the same molecule, the “physical stability (PXRD) after storage” value in series [2] (six months at 4 and 40 °C, closed glass vials) is recorded as “remained the same for six months”. Besides, in series [2] (six months at 40 °C), the “physical stability (PXRD) after storage” value is given as “no changes in the PXRD; also recorded: stable for six months”. For the same molecule, in series [3], the “dissolution rate and concentration at 6 h compared with crystalline FMN” value is “faster dissolution rate and higher concentration at the 6-h time point”.
